How the values were obtained:
[1] = target: T1, Shp2 (Homo sapiens (Human), UniProt Q06124); conditions: background statement; cited from earlier work
Target sequence in this assay (Q06124 whole entry, species assumed): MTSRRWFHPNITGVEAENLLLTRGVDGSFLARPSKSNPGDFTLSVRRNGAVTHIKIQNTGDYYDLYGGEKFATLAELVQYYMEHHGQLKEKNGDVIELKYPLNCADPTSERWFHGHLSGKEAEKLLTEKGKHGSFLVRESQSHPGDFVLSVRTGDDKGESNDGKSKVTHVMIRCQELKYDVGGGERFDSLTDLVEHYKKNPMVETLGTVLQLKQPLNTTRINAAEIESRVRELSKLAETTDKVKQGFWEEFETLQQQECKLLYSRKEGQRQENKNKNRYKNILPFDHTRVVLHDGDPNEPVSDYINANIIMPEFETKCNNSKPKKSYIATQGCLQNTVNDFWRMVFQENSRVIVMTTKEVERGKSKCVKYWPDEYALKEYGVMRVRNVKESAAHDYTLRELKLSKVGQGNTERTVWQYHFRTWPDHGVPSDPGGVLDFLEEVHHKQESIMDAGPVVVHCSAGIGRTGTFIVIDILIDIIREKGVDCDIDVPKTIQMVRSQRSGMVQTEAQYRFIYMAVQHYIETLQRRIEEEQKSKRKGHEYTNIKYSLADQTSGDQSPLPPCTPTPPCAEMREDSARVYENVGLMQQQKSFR

[2] = target: Shp1 (Homo sapiens (Human), UniProt P29350); conditions: background statement, non-selective; cited from earlier work
[3] = target: T1, Shp2; assay: in vitro phosphotyrosine phosphatase activity (DiFMUP) assay; type: biochemical; conditions: mean ± spread over n tests
Description: All reagents were purchased from commercial suppliers and used without further purification. Melting points were determined using a Barnstead international melting point apparatus and remain uncorrected. ^1H NMR spectra were recorded on a Varian Mercury 400 MHz spectrometer with CDCl3 or DMSO-d6 as the solvent. ^13C NMR spectra are recorded at 100 MHz. All coupling constants are measured in Hertz (Hz) and the chemical shifts (δH and δC) are quoted in parts per million (ppm) relative to TMS (δ0), which was used as the internal standard. High resolution mass spectroscopy was carried out on an Agilent 6210 LC/MS (ESI-TOF). Microwave reactions were performed in CEM 908005 model and Biotage initiator 8 machines. HPLC analysis was performed using a JASCO HPLC system equipped with a PU-2089 Plus quaternary gradient pump and a UV-2075 Plus UV-VIS detector, using an Alitech Kromasil C-18 column (150×4.6 mm, 5 μm). Thin layer chromatography was performed using silica gel 60 F254 plates (Fisher), with observation under UV when necessary. Anhydrous solvents (acetonitrile, dimethyl formamide, ethanol, isopropanol, methanol and tetrahydrofuran) were used as purchased from Aldrich. HPLC grade solvents (methanol, acetonitrile and water) were purchased from Burdick and Jackson for HPLC and mass analysis.
Target sequence in this assay (Q06124 whole entry): as the sequence (Q06124 whole entry, species assumed) above

Shp1, sequence (P29350 whole entry): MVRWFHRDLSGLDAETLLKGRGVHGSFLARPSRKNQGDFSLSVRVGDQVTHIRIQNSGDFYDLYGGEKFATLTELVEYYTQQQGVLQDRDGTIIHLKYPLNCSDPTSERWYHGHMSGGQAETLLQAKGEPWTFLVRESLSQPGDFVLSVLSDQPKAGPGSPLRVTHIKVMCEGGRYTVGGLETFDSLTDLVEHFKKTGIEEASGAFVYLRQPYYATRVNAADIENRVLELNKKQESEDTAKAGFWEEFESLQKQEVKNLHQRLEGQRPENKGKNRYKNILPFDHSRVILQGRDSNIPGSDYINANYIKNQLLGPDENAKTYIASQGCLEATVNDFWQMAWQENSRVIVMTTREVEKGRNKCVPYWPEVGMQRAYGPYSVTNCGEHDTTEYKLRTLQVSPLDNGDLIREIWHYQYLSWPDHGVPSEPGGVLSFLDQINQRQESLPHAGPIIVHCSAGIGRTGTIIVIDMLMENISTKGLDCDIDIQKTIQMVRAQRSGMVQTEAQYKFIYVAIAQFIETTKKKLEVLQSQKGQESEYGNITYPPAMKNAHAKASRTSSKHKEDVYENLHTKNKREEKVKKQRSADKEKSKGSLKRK

CCOc1ccc(NC(=O)CN2C(=O)/C(=C3\SC(=S)C(CCS(=O)(=O)O)C3=O)c3ccccc32)cc1 (centres unmarked) [CDL 4340-0580]
inhibition of Shp2 [1]: ability to inhibit Shp2 | inhibition of Shp1 [2]: also inhibit tumor suppressor Shp1

O=C(O)CCC(=O)N1CCc2cc(S(=O)(=O)N3CCN(c4cc(Cl)cc(Cl)c4)CC3)ccc21 [XW2-124B, 4-(5-(4-(3,5-Dichlorophenyl)piperazin-1-ylsulfonyl)indolin-1-yl)-4-oxobutanoic acid]
IC50 [3]: 4.5 ± 1.2 µM

Cc1ccc(Cl)cc1N1CCN(S(=O)(=O)c2ccc3c(c2)CCN3C(=O)CCC(=O)O)CC1 [XW2-125B, 4-(5-(4-(5-Chloro-2-methylphenyl)piperazin-1-ylsulfonyl)indolin-1-yl)-4-oxobutanoic acid]
IC50 [3]: 1.5 µM

Cc1ccc(N2CCN(S(=O)(=O)c3ccc4c(c3)CCN4C(=O)CCC(=O)O)CC2)cc1Cl [XW3-006, 4-(5-(4-(3-Chloro-4-methylphenyl)piperazin-1-ylsulfonyl)indolin-1-yl)-4-oxobutanoic acid]
IC50 [3]: 16.6 ± 3.6 µM

Source: patent US9174969B2, “Indoline scaffold SHP-2 inhibitors and cancer treatment method” (UNIVERSITY OF SOUTH FLORIDA, priority 2008, dated 2015)
